Assay results: patent US7070983B2, “Mutant Pseudomonas putida strains and methods of use thereof” (priority 2003, dated 2006)

Columns and labels:
Assay type in all cases: cell-based, Pseudomonas putida
[1] = test system: 4HBA-tolerant Str, Gen and Rif mutants of P. putida KH146-2; conditions: Str mutants and Rif mutants tested; in words
Method: (§1) Pseudomonas putida KH146-2 was originally isolated from soil for the capability of growing in the presence of 4-hydroxybenzoate (Chen et al., ((1998) Res Communs Biochem and Cell & Mol Biol 2: 253–274)). HBM medium consists of 50 mM sodium potassium phosphate buffer (pH6.8), 0.1% (NH4)2SO4 and Hutner's base. Hutner's base cotained (per liter) nitrilotriacetic acid, 200 mg; CaCl2.2H2O, 67 mg; (NH4)6Mo7O24.4H2O, 185 μg; MgSO4, 289 mg; EDTA, 2.5 mg; ZnSO4.7H2O, 11 mg; FeSO4.7H2O, 7 mg; MnSO4.H2O, 1.5 mg; CuSO4.5H2O, 390 μg; Co(NO3)2.6H2O, 250 μg, and Na2B4O7.10H2O, 180 μg. LB medium contains 1% tryptone, 0.5% yeast extract, and 1% NaCl (adjusted pH 6.8). LBH medium contains 1% tryptone and 0.5% yeast extract in HBM medium. The bacteria were grown at 30° C. in a shaker at 200 rpm. For tolerance tests, HBM or LBH agar plates containing serially increasing concentrations of an organic chemical were employed. Routinely, 20 to 40 bacterial strains were spot-transplanted with the aid of tooth pick on an agar plate, followed by incubation at 30° C. for 3 days.
Using several strains randomly chosen as representatives of 4HBA-tolerant mutants, we examined the tolerance level to various organic compounds. […] Tolerance levels to other organic compounds were also examined.

[2] = test system: P. putida wild-type KH146-2; conditions: LBH medium, 30° C., 3 days
Method: as §1

[3] = test system: P. putida strain no. 12 (Gen mutant); test: Tolerance test (MIC) on agar plates; conditions: LBH medium
Method: as §1

[4] = test system: P. putida strain no. 3 (Str mutant); test: Tolerance test (MIC) on agar plates; conditions: LBH medium
Method: as §1

[5] = test system: P. putida strain no. 14 (Rif mutant); test: Tolerance test (MIC) on agar plates; conditions: LBH medium
Method: as §1

[6] = test system: P. putida strain no. 17 (Rif mutant); test: Tolerance test (MIC) on agar plates; conditions: LBH medium
Method: as §1

[7] = test system: P. putida strain no. 15 (Rif mutant); test: Tolerance test (MIC) on agar plates; conditions: LBH medium
Method: as §1

[8] = test system: P. putida strain no. 9 (Str mutant); test: Tolerance test (MIC) on agar plates; conditions: LBH medium
Method: as §1

KH146-2 = test: Organic solvent tolerance, growth in saturated LBH medium
Str and Rif mutants = test: as above
[9] = LBH medium containing saturated concentrations of m-xylene
[10] = 3% MeOH-LBH medium saturated with toluene

O=C(O)c1ccccc1I [2-iodobenzoate]
Tolerance of mutants relative to wild-type [1]: increased tolerance

O=C(O)c1ccccc1Cl [2CB, 2-chlorobenzoate]
Tolerance (MIC) [2]: 1.5 ± 0.2% | Tolerance of mutants relative to wild-type [1]: modest increment of tolerance | Tolerance (MIC) [3]: 1.9 ± 0.3% | Tolerance (MIC) [4]: 1.9 ± 0.2% | Tolerance (MIC) [5]: 1.9 ± 0.2% | Tolerance (MIC) [6]: 2.1 ± 0.2% | Tolerance (MIC) [7]: 2.0 ± 0.2% | Tolerance (MIC) [8]: 1.7 ± 0.2%

O=C(O)c1ccccc1O [2HBA, 2-hydroxybenzoate]
Tolerance (MIC) [2]: 0.8 ± 0.1% | Tolerance of mutants relative to wild-type [1]: slight or no increase of tolerance | Tolerance (MIC) [3]: 0.8 ± 0.1% | Tolerance (MIC) [4]: 0.9 ± 0.1% | Tolerance (MIC) [5]: 0.8 ± 0.1% | Tolerance (MIC) [6]: 0.7 ± 0.1% | Tolerance (MIC) [7]: 0.8 ± 0.1% | Tolerance (MIC) [8]: 0.8 ± 0.1%

O=C(O)c1ccc(O)c(Br)c1 [3-bromo-4-hydroxybenzoate]
Tolerance of mutants relative to wild-type [1]: increased tolerance

O=C(O)c1cccc(I)c1 [3-iodobenzoate]
Tolerance of mutants relative to wild-type [1]: increased tolerance

O=C(O)c1cccc(Cl)c1 [3CB, 3-chlorobenzoate]
Tolerance (MIC) [2]: 0.9 ± 0.1% | Tolerance of mutants relative to wild-type [1]: slight or no increase of tolerance | Tolerance (MIC) [3]: 1.1 ± 0.2% | Tolerance (MIC) [4]: 1.1 ± 0.2% | Tolerance (MIC) [5]: 1.1 ± 0.2% | Tolerance (MIC) [6]: 1.2 ± 0.1% | Tolerance (MIC) [7]: 1.3 ± 0.2% | Tolerance (MIC) [8]: 1.0 ± 0.2%

O=C(O)c1cccc(O)c1 [3HBA, 3-hydroxybenzoate]
Tolerance (MIC) [2]: 1.4 ± 0.1% | Tolerance of mutants relative to wild-type [1]: modest increment of tolerance | Tolerance (MIC) [3]: 1.9 ± 0.2% | Tolerance (MIC) [4]: 1.8 ± 0.2% | Tolerance (MIC) [5]: 1.9 ± 0.1% | Tolerance (MIC) [6]: 1.8 ± 0.3% | Tolerance (MIC) [7]: 1.9 ± 0.2% | Tolerance (MIC) [8]: 1.8 ± 0.1%

O=C(O)c1ccc(Cl)cc1O [4-chlorosalicylate]
Tolerance of mutants relative to wild-type [1]: increased tolerance

O=C(O)c1ccc(F)cc1 [4-fluorobenzoate]
Tolerance of mutants relative to wild-type [1]: increased tolerance

O=C(O)c1cc(Cl)ccc1O [5-chlorosalicylate]
Tolerance of mutants relative to wild-type [1]: increased tolerance

O=C(O)c1ccccc1 [BA, benzoic acid]
Tolerance (MIC) [2]: 0.8 ± 0.2% | Tolerance of mutants relative to wild-type [1]: slight or no increase of tolerance | Tolerance (MIC) [3]: 1.0 ± 0.1% | Tolerance (MIC) [4]: 1.0 ± 0.1% | Tolerance (MIC) [5]: 1.1 ± 0.1% | Tolerance (MIC) [6]: 1.1 ± 0.1% | Tolerance (MIC) [7]: 1.0 ± 0.1% | Tolerance (MIC) [8]: 0.9 ± 0.1%

CC(C)C(=O)O [isobutyrate]
Tolerance of mutants relative to wild-type [1]: increased tolerance

CC(C)CC(=O)O [isovalerate]
Tolerance of mutants relative to wild-type [1]: increased tolerance

Cc1cccc(C)c1 [m-xylene]
growth (KH146-2; [9]): inhibited almost completely | growth (Str and Rif mutants; [9]): grew

Cc1ccccc1 [toluene]
growth (KH146-2; [10]): somewhat retarded | growth (Str and Rif mutants; [10]): grew normally

isonicotinate
Tolerance of mutants relative to wild-type [1]: increased tolerance

norvalerate
Tolerance of mutants relative to wild-type [1]: increased tolerance
